Results: US6663881B2 (priority 1993, dated 2003)
Where two headings read alike, the source gives them in different places.

What was measured:
[1] = Biodistribution of cytochalasin B after i.p. injection (HPLC); assay type: in vivo, mice; conditions: 50 mg/kg i.p.
Protocol: Biodistribution of Cytochalasin B. To determine the biodistribution of cytochalasin B, mice were injected (i.p.) with 50 mg/kg cytochalasin B. Control mice were injected with DMSO/Tween 20/carboxymethyl cellulose (“vehicle”). The mice were sacrificed at 3, 12, 24 and 72 hours after cytochalasin B or vehicle administration. Organs were removed, homogenized, extracted and the amount of cytochalasin B in tissues quantitated by HPLC. About 75% of the cytochalasin B remained in the peritoneal cavity or at the injection site.

[2] = Tissue distribution of cytochalasin B after intravenous administration (TLC); assay type: in vivo, mice
Protocol: Cytochalasin B was also administered intravenously to mice at 3.5 mg/kg (in methanol or Tween 20/carboxymethyl cellulose). Mice were sacrificed at 2 minutes, 15 minutes, 30 minutes, 3 hours and 12 hours after cytochalasin B administration and tissue extracts analyzed for cytochalasin by TLC. The maximal recovery of cytochalasin B from tissue extracts was 32%.

[3] = test system: Vascular smooth muscle cells
[4] = test system: balloon traumatized left carotid artery
[5] = test system: Vascular smooth muscle cells (BO54); assay: Scratch-migration assay; assay type: cell-based, baboon; parameters: key: −=no toxicity; +1=minimal; +2=mild; +3=moderate; +4=marked toxicity; conditions: Continuous Exposure
Protocol: Scratch assays to determine the extent of smooth muscle cell migration inhibition by cytochalasin B were performed in accordance with the following protocol:
Vascular smooth muscle cells (BO54) were derived from explants of baboon aortic smooth muscle, as described in Example 10. The cells were grown in flat bottom, six well tissue culture plates, which hold about 5 ml of medium. The vascular smooth muscle cells were plated at 200,000 cells/well and placed at 37° C. in a humidified 5% CO2 incubator for 18 hours. The wells were then scratched with a sterile portion of a single edge razor blade that was held by clamp or pliers and was brought aseptically into contact with the bottom of the well at a 90° angle. The cells from a small area along the scratch were removed by a sterile cotton tipped applicator while the blade was in contact with the bottom of the well. After incubation, the presence of cells in the “scratched” area is indicative of cell migration across the scratch line.
Briefly, a stock solution of cytochalasin B (Sigma Chemical Co.) in dimethyl sulfoxide (DMSO) at 1 mg/ml was prepared. Test dilutions of cytochalasin B or control medium were added. Each experiment included two sets of plates:
A set: Test agent exposure for 1, 3, 6, 8 and 10 days only; and
B set: Test agent exposure for 1, 3, 6, 8 and 10 days, followed by a seven day recovery time with control medium.
Both sets of plates were fixed (10% formalin in PBS) and stained (0.02% crystal violet) at the end of the timed exposures. Test concentrations for cytochalasin B were 1, 0.1 and 0.01 μg/ml, and a negative medium control was included. […]
In this Table, “M” indicates Migration Grade, wherein −=no migration; +1=minimal; +2=mild; +3=moderate; and +4=marked (maximum density; limit of cell contact inhibition) migration of vascular smooth muscle cells into the cleared area adjacent to the scratch. […] The migration results are expressed as “Grade in the Cleared Area of the Well/Grade in an Undisturbed Region of the Well.” The toxicity values represent a grade for all cells in each well.

C=C1[C@@H](C)[C@H]2[C@H](Cc3ccccc3)NC(=O)[C@]23OC(=O)/C=C/[C@H](O)CCC[C@@H](C)C/C=C/[C@H]3[C@@H]1O [cytochalasin B]
organ with the highest amount [1]: liver
acute toxicity ([2]; 3.5 mg/kg intravenously): no acute toxicity
maximal recovery from tissue extracts ([2]; 3.5 mg/kg intravenously): 32%
tissue localization ([2]; 3.5 mg/kg intravenously): localized to the lung and the injection site
levels in tissues ([2]; 12 hours after administration): very low levels
Morphological cytotoxicity grade ([3]; 0.01 μg, 24 hrs + 24 hrs): 0
Morphological cytotoxicity grade ([3]; 0.01 μg, 24 hrs + 48 hrs): 0
Morphological cytotoxicity grade ([3]; 0.01 μg, 24 hrs + 72 hrs): 0
Morphological cytotoxicity grade ([3]; 0.01 μg, 24 hrs + 96 hrs): 0
Morphological cytotoxicity grade ([3]; 0.01 μg, 24 hrs + 120 hrs): 0
Morphological cytotoxicity grade ([3]; 0.01 μg, Continuous 6 hrs): 0
Morphological cytotoxicity grade ([3]; 0.01 μg, Continuous 24 hrs (first listing)): 0
Morphological cytotoxicity grade ([3]; 0.01 μg, Continuous 24 hrs (second listing)): 0
Morphological cytotoxicity grade ([3]; 0.01 μg, Continuous 48 hrs): 0
Morphological cytotoxicity grade ([3]; 0.01 μg, Continuous 72 hrs): 0
Morphological cytotoxicity grade ([3]; 0.01 μg, Continuous 96 hrs): 0
Morphological cytotoxicity grade ([3]; 0.01 μg, Continuous 120 hrs): 0
Morphological cytotoxicity grade ([3]; 0.01 μg, Continuous 168 hrs): 0
Morphological cytotoxicity grade ([3]; 0.01 μg, Continuous 216 hrs): 0
Morphological cytotoxicity grade ([3]; 0.01 μg, Continuous 264 hrs): 0
Morphological cytotoxicity grade ([3]; 0.1 μg, 5 min + 2 hrs): 0
Morphological cytotoxicity grade ([3]; 0.1 μg, 5 min + 24 hrs): 0
Morphological cytotoxicity grade ([3]; 0.1 μg, 5 min + 48 hrs): 0
Morphological cytotoxicity grade ([3]; 0.1 μg, 5 min + 72 hrs): 0
Morphological cytotoxicity grade ([3]; 0.1 μg, 5 min + 96 hrs): 0
Morphological cytotoxicity grade ([3]; 0.1 μg, 5 min + 120 hrs): 0
Morphological cytotoxicity grade ([3]; 0.1 μg, 24 hrs + 24 hrs): 0.5
Morphological cytotoxicity grade ([3]; 0.1 μg, 24 hrs + 48 hrs): 1
Morphological cytotoxicity grade ([3]; 0.1 μg, 24 hrs + 72 hrs): 0.5
Morphological cytotoxicity grade ([3]; 0.1 μg, 24 hrs + 96 hrs): 0
Morphological cytotoxicity grade ([3]; 0.1 μg, 24 hrs + 120 hrs): 0
Morphological cytotoxicity grade ([3]; 0.1 μg, Continuous 6 hrs): 0
Morphological cytotoxicity grade ([3]; 0.1 μg, Continuous 24 hrs (first listing)): 1
Morphological cytotoxicity grade ([3]; 0.1 μg, Continuous 24 hrs (second listing)): 0
Morphological cytotoxicity grade ([3]; 0.1 μg, Continuous 48 hrs): 1
Morphological cytotoxicity grade ([3]; 0.1 μg, Continuous 72 hrs): 1
Morphological cytotoxicity grade ([3]; 0.1 μg, Continuous 120 hrs): 1
Morphological cytotoxicity grade ([3]; 0.1 μg, Continuous 168 hrs): 1
Morphological cytotoxicity grade ([3]; 0.1 μg, Continuous 216 hrs): 1
Morphological cytotoxicity grade ([3]; 0.1 μg, Continuous 264 hrs): 1
Morphological cytotoxicity grade ([3]; 1 μg, 5 min + 2 hrs): 0
Morphological cytotoxicity grade ([3]; 1 μg, 5 min + 48 hrs): 1
Morphological cytotoxicity grade ([3]; 1 μg, 5 min + 72 hrs): 1
Morphological cytotoxicity grade ([3]; 1 μg, 5 min + 96 hrs): 1
Morphological cytotoxicity grade ([3]; 1 μg, 5 min + 120 hrs): 1
Morphological cytotoxicity grade ([3]; 1 μg, 24 hrs + 24 hrs): 3
Morphological cytotoxicity grade ([3]; 1 μg, 24 hrs + 48 hrs): 4
Morphological cytotoxicity grade ([3]; 1 μg, 24 hrs + 72 hrs): 4
Morphological cytotoxicity grade ([3]; 1 μg, 24 hrs + 96 hrs): 4
Morphological cytotoxicity grade ([3]; 1 μg, 24 hrs + 120 hrs): 4
Morphological cytotoxicity grade ([3]; 1 μg, Continuous 24 hrs (first listing)): 3
Morphological cytotoxicity grade ([3]; 1 μg, Continuous 24 hrs (second listing)): 3
Morphological cytotoxicity grade ([3]; 1 μg, Continuous 48 hrs): 3
Morphological cytotoxicity grade ([3]; 1 μg, Continuous 72 hrs): 3
Morphological cytotoxicity grade ([3]; 1 μg, Continuous 96 hrs): 3
Morphological cytotoxicity grade ([3]; 1 μg, Continuous 120 hrs): 3
Morphological cytotoxicity grade ([3]; 1 μg, Continuous 168 hrs): 4
Morphological cytotoxicity grade ([3]; 1 μg, Continuous 216 hrs): 4
Morphological cytotoxicity grade ([3]; 1 μg, Continuous 264 hrs): 4
cytotoxicity grade at in vitro effective dosage ([3]; 1 μg/ml, anti-migration/contraction effective dose): 1
Morphological cytotoxicity grade ([3]; 10 μg, 5 min + 2 hrs): 0.5
Morphological cytotoxicity grade ([3]; 10 μg, 5 min + 24 hrs): 4
Morphological cytotoxicity grade ([3]; 10 μg, 5 min + 48 hrs): 4
Morphological cytotoxicity grade ([3]; 10 μg, 5 min + 120 hrs): 5
morphometry vs untreated controls ([4]; 14 days): no statistical difference from the controls
post-surgical weight gain ([4]; periadventitial crystals): delay in post-surgical weight gain
toxicity at the surgical site ([4]; periadventitial crystals): significant toxicity at the surgical site
Toxicity Grade ([5]; Day 6, 1.0 μg/mL): +4
Toxicity Grade ([5]; Day 8, 1.0 μg/mL): +4
Toxicity Grade ([5]; Day 10, 1.0 μg/mL): +4
